One test concerns the target T1, FLT3 ITD, D835V (Homo sapiens, UniProt P36888, D835V/ITD).
T1 sequence (P36888 564-993 D835V): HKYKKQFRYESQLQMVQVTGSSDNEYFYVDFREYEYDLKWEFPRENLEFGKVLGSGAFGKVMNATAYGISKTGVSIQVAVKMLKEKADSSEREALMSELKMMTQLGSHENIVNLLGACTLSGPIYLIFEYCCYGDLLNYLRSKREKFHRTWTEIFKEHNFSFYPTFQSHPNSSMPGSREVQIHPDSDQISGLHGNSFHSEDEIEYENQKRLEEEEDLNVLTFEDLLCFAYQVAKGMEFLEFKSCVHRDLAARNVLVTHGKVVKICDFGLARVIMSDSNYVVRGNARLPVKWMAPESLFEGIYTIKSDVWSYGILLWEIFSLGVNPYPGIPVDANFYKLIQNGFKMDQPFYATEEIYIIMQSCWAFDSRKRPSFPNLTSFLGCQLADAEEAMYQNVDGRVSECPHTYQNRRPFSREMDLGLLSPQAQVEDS
Kind of test: DiscoverX KINOMEscan competition binding assay, FLT3 ITD, D835V. The source says: (§1) Kinase binding data were obtained for various exemplary compounds prepared according to Examples 1-25 using the DiscoverX KINOMEscan® active site-directed competition binding site-directed assay protocol described below. […] As a result, the data report thermodynamic interaction affinities (Kd values), rather than IC50 values that are dependent on ATP concentrations. The assay uses a DNA-tagged version of the protein kinase, and an immobilized ligand bound to a solid support. Compounds that directly or indirectly prevent kinase binding to the immobilized ligand reduce the amount of kinase captured on the solid support, which is detected using an ultra-sensitive qPCR method. Affinity constants reported from the assay have been reported to be independent of the immobilized ligand used that is coupled to the solid support (See supplemental information in Fabian, M. A. et. al., (2005) Nat. Biotechnol. 23, 329-336; Wodicka, L. M. et. al., (2010) Chem. Biol. 17, 1241-1249.)
(§2) Kinase-tagged T7 phage strains were prepared in an E. coli host derived from the BL21 strain. E. coli were grown to log-phase and infected with T7 phage and incubated with shaking at 32° C. until lysis. The lysates were centrifuged and filtered to remove cell debris. The remaining kinases were produced in HEK-293 cells and subsequently tagged with DNA for qPCR detection. […] The liganded beads were blocked with excess biotin and washed with blocking buffer (SeaBlock (Pierce), 1% BSA, 0.05% Tween 20, 1 mM DTT) to remove unbound ligand and to reduce non-specific binding. […] Test compounds were prepared as 111× stocks in 100% DMSO. Kds were determined using an 11-point 3-fold compound dilution series with three DMSO control points. […] The compounds were then diluted directly into the assays such that the final concentration of DMSO was 0.9%. All reactions were performed in polypropylene 384-well plates. Each was a final volume of 0.02 mL. […] The kinase concentration in the eluates was measured by qPCR.
(§3) Binding constants (Kds) were calculated with a standard dose-response curve using the Hill equation. […]

Another test deals with T2, FLT3 D835Y (Homo sapiens, UniProt P36888, D835Y).
T2 construct: purchased DiscoverX (KINOMEscan); host or cells: E. coli (T7 phage) or HEK-293
T2 sequence (P36888 27-993 D835Y): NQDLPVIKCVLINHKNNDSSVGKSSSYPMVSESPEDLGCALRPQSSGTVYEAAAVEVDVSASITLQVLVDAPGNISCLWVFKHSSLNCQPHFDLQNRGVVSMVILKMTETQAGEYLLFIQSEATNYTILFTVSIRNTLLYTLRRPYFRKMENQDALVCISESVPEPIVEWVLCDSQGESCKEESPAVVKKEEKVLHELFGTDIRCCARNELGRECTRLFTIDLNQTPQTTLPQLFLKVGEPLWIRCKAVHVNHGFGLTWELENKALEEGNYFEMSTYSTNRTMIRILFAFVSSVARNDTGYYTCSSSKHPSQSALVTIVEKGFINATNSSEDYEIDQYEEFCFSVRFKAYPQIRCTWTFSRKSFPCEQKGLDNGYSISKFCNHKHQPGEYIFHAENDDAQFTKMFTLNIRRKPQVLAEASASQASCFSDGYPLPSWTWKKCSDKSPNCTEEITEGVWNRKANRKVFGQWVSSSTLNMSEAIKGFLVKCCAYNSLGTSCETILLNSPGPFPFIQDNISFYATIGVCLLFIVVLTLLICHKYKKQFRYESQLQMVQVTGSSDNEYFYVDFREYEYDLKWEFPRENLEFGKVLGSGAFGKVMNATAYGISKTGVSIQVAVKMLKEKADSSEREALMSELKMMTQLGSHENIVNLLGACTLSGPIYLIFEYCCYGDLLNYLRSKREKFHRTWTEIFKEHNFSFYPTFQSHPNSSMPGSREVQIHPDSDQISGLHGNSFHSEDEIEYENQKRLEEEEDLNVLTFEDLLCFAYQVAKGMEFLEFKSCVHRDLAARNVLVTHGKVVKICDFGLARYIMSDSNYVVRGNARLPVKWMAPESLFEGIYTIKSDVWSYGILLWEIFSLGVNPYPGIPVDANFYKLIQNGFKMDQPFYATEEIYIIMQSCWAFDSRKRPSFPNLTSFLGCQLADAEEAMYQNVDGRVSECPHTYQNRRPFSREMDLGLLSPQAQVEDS
Kind of test: DiscoverX KINOMEscan competition binding assay, FLT3 D835Y.
From the text: as §1, §2, §3

SMILES strings stand for the structures. Where two headings read alike, the source gives them in different places.

In the case of `COc1cc2ncc(-c3cccc(N[C@@H]4CCNC4)n3)n2nc1C1CC1` [Compound 97, (R)-6-(6-cyclopropyl-7-methoxyimidazo[1,2-b]pyridazin-3-yl)-N-(pyrrolidin-3-yl)pyridin-2-amine], the Kd at FLT3 ITD, D835V (read-out: FLT3 ITD, D835V Kd) was 34 pM; on FLT3 D835Y it was 63 pM.

For `COc1cc2ncc(-c3cccc(N[C@H]4CNCC[C@@H]4F)n3)n2nc1C1CC1` [Compound 102, 6-(6-cyclopropyl-7-methoxyimidazo[1,2-b]pyridazin-3-yl)-N-((3S,4S)-4-fluoropiperidin-3-yl)pyridin-2-amine], the Kd was 45 pM on FLT3 ITD, D835V (read-out: FLT3 ITD, D835V Kd) and 160 pM at FLT3 D835Y.

As for `COc1cc2ncc(-c3cccc(N[C@H]4CNC[C@@H]4F)n3)n2nc1C1CC1` [Compound 96, 6-(6-cyclopropyl-7-methoxyimidazo[1,2-b]pyridazin-3-yl)-N-((3S,4S)-4-fluoropyrrolidin-3-yl)pyridin-2-amine], the equilibrium dissociation constant (Kd) at FLT3 ITD, D835V was 70 pM; at FLT3 D835Y it was 460 pM.

The term Kd denotes the concentration at which binding is half-saturated.

Values taken from US12534469B2 (CHILDREN'S HOSPITAL MEDICAL CENTER, priority 2020, dated 2026).
